Assay results as given in patent US20260137697A1, “THIAZOLO[5,4-D]PYRIMIDINE COMPOUNDS, COMPOSITIONS COMPRISING THEM AND USES THEREOF” (University de Montreal, priority 2022, published 2026).
pIC50: −log10 of the molar value.

Key:
[1] = test system: pERK, HCT116 cells; test: Phospho-ERK inhibition, AlphaLISA p-ERK 1/2, HCT-116; type: cell-based, human; details: Table 3; for pIC50: HCT116 cells (KRAS G13D), 1 h treatment; for HCT116 pERK (Ymin %): lowest % inhibition value of the pERK IC50 curve, above −20% = no paradoxical induction
Outline: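 Cells in RPMI-1640 with 5% FBS plated overnight, then treated 1 h with ten-point dilutions (10 μM to 0.33 nM, 0.5% DMSO). Lysate p-ERK1/2 (Thr202/Tyr204) read by AlphaLISA SureFire Ultra; % inhibition normalised to DMSO and 1 μM trametinib background, IC50 by four-parameter fit.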

[2] = biological target: T1, CRAF (Homo sapiens, UniProt P04049); test: CRAF kinase activity assay (ADP-Glo); type: biochemical; details: Table 3; 10 μM ATP, kinase-dead MEK1 substrate
T1 construct: fused on or other part: GST tag (N-terminal according to the vendor's product)
T1 sequence (P04049 whole entry Y340E/Y341E, form open, the tested form may be a part): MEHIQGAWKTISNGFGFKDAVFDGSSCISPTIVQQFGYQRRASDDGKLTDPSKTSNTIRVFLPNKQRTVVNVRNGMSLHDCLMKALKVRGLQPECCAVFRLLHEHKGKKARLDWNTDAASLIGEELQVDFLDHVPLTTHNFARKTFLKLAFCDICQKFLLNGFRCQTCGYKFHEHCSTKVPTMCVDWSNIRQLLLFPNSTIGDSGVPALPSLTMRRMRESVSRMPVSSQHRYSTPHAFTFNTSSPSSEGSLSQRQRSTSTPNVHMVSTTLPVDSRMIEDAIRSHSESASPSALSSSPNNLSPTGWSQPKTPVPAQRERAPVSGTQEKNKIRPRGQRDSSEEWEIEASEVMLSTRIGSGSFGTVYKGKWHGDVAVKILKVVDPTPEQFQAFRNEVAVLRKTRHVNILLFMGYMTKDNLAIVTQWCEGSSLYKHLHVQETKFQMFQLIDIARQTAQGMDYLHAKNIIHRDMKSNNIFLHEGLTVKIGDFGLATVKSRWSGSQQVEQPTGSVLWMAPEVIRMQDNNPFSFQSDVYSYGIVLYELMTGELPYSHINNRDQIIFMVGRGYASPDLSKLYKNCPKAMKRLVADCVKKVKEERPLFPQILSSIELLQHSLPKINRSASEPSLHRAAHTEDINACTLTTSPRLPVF
Outline: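 GST-tagged kinase (0.375 nM) with 75 nM kinase-dead MEK1 and 10 μM ATP in HEPES pH 7.5 buffer, 2 h at 30° C, nine concentrations 100–0.01 nM, 0.05% DMSO. ADP-Glo luminescence; % inhibition vs DMSO and substrate-only blanks, IC50 by four-parameter fit.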

pIC50 [1]	pIC50 [2]	SMILES	HCT116 pERK (Ymin %) [1] [%]
> 6.30	> 8.00	Cc1c(F)cccc1S(=O)(=O)Nc1ccc(F)c(Nc2ncnc3sc(-n4cc(C(=O)N5C6CCC5CN(C)C6)c5ccccc54)nc23)c1F [Example 44]	3
> 6.30	> 8.00	N#CC1(c2cccc3c2ncn3-c2nc3c(Nc4c(F)ccc(NS(=O)(=O)c5cccc(Cl)c5Cl)c4F)ncnc3s2)CC1 [Example 122]	2
